Reference: patent US10858335B2 (Rigel Pharmaceuticals, Inc., priority 2014, dated 2020)
Counter-ions that a name gives are not always drawn.

Each compound was assayed on GDF8 signaling (p-SMAD-3 (Ser423/425)) (assay: AlphaScreen SureFire SMAD3 (p-Ser423/425) assay, GDF8-stimulated cells (GDF pSMAD)). Conditions: Mus musculus, MPC-11, GDF8-stimulated pSMAD3, MPC11; tested as the salt form given; read-out: GDF pSMAD (MPC11) (μM), inhibition of GDF8 signaling.
Format: cell-based
For Cc1cc2ncnc(N)c2cc1-c1cccnc1-c1cc(Cl)ccc1F [compound 981, 6-(2-(5-chloro-2-fluorophenyl)pyridin-3-yl)-7-methylquinazolin-4-amine], the IC50 was 9.34 µM. Work on Nc1ncnc2ccc(-c3cccnc3-c3cccc(OC4COC4)c3)cc12 [compound 1030, 6-(2-(3-(oxetan-3-yloxy)phenyl)pyridin-3-yl)quinazolin-4-amine] yielded an IC50 of 1.14 µM. Cc1cc(-c2cccnc2-c2ccc(F)c(Cl)c2)cc2c(N)ncnc12 [compound 985, 6-(2-(3-chloro-4-fluorophenyl)pyridin-3-yl)-8-methylquinazolin-4-amine] was tested, and the IC50 was 2.18 µM. Work on CCc1cccc(-c2ncccc2-c2ccc3ncnc(N)c3c2)c1 [compound 1007, 6-(2-(3-ethylphenyl)pyridin-3-yl)quinazolin-4-amine] yielded an IC50 of 0.223 µM. For Nc1ncnc2ccc(-c3cccnc3-c3cccc(OC(F)F)c3)cc12 [compound 982, 6-(2-(3-(difluoromethoxy)phenyl)pyridin-3-yl)quinazolin-4-amine], the IC50 was 0.0411 µM. Nc1ncnc2ccc(-c3cccnc3-c3cc(Cl)cc(F)c3F)cc12 [compound 1035, 6-(2-(5-chloro-2,3-difluorophenyl)pyridin-3-yl)quinazolin-4-amine] showed an IC50 of 0.161 µM. Nc1ncnc2ccc(-c3cccnc3-c3cc(C(F)F)ccc3Cl)cc12 [compound 1018, 6-(2-(2-chloro-5-(difluoromethyl)phenyl)pyridin-3-yl)quinazolin-4-amine] was tested, and the IC50 was 0.735 µM.

Same assay, conditions: Mus musculus, MPC-11, MPC11; GDF8-stimulated; p-SMAD3 AlphaScreen; read-out: GDF pSMAD (MPC11) (inhibition of GDF8 signaling)
Cc1cc(-c2ncccc2-c2ccc3ncc(C(=O)N[C@H]4CN5CCC4CC5)n3c2)ccc1F [compound 791, (R)-6-(2-(4-Fluoro-3-methylphenyl)pyridin-3-yl)-N-(quinuclidin-3-yl)imidazo[1,2-a]pyridine-3-carboxamide] showed an IC50 of 5.37 µM. FC(F)(F)c1cccc(-c2ncccc2-c2ccc3nccn3c2)c1 [Compound 199, 6-(2-(3-(Trifluoromethyl)phenyl)pyridin-3-yl)H-imidazo[1,2-a]pyridine] gave an IC50 of 1.16 µM. In the case of Cc1cc(-c2ncc(NC(=O)c3cccnc3)cc2-c2ccc3ncsc3c2)ccc1F [compound 315, N-(5-(Benzo[d]thiazol-6-yl)-6-(4-fluoro-3-methylphenyl)pyridin-3-yl)nicotinamide], the IC50 is reported as 0.749 µM. Cc1cc(-c2ncccc2-c2ccc3ccnc(N)c3c2)ccc1F [compound 298, 7-(2-(4-Fluoro-3-methylphenyl)pyridin-3-yl)isoquinolin-1-amine] was tested, and the IC50 was 0.999 µM. Cc1cc(-c2ncccc2-c2ccn3ncc(C(=O)NCCCO)c3c2)ccc1F [compound 706, 5-(2-(4-Fluoro-3-methylphenyl)pyridin-3-yl)-N-(3-hydroxypropyl)pyrazolo[1,5-a]pyridine-3-carboxamide] was tested, and the IC50 was 0.228 µM. With Cc1cc(-c2ncccc2-c2ccc3c(cnn3C(=O)OC[C@@H](N)Cc3c[nH]c4ccccc34)c2)ccc1F [compound 179, (S)-2-Amino-3-(1H-indol-3-yl)propyl 5-(2-(4-fluoro-3-methylphenyl)pyridin-3-yl)-1H-indazole-1-carboxylate Trifluoroacetic Acid Salt] the IC50 was 0.337 µM. Fc1cnc(-c2cccc(C(F)(F)F)c2)c(-c2ccn3ncnc3c2)c1 [compound 863, 7-(2-(3-((Difluoro-13-methyl)-12-fluoranyl)phenyl)-5-fluoropyridin-3-yl)-[1,2,4]triazolo[1,5-a]pyridine] gave an IC50 of 5.89 µM. O=C(NCCCN1CCCC1=O)c1cnc2ccc(-c3cccnc3-c3cccc(Cl)c3)cn12 [compound 726, 6-(2-(3-Chlorophenyl)pyridin-3-yl)-N-(3-(2-oxopyrrolidin-1-yl)propyl)imidazo[1,2-a]pyridine-3-carboxamide] was tested, and the IC50 was 0.565 µM. O=c1cnc2ccc(-c3cccnc3-c3cc(Cl)ccc3F)cc2[nH]1 [compound 892, 7-(2-(5-Chloro-2-fluorophenyl)pyridin-3-yl)quinoxalin-2(1H)-one] gave an IC50 of 0.426 µM. With FC(F)(F)c1cccc(-c2ncccc2-c2ccn3cncc3c2)c1 [compound 597, 7-(2-(3-(Trifluoromethyl)phenyl)pyridin-3-yl)imidazo[1,5-a]pyridine] the IC50 was 0.837 µM. FC(F)(F)Oc1cccc(-c2ncccc2-c2ccn3ncnc3c2)c1 [compound 882, 7-(2-(3-(Trifluoromethoxy)phenyl)pyridin-3-yl)-[1,2,4]triazolo[1,5-a]pyridine] was tested, and the IC50 was 1.12 µM. With Nc1ncnc2ccc(-c3cccnc3-c3ccc(F)c(C(F)(F)F)c3)cc12 [compound 476, 6-(2-(4-Fluoro-3-(trifluoromethyl)phenyl)pyridin-3-yl)quinazolin-4-amine] the IC50 was 2.76 µM. With Cc1ccc(CNc2cnc(-c3ccc(F)c(C)c3)c(-c3ccc4ncsc4c3)c2)cn1 [compound 334, 5-(Benzo[d]thiazol-6-yl)-6-(4-fluoro-3-methylphenyl)-N-((6-methylpyridin-3-yl)methyl)pyridin-3-amine] the IC50 was 0.373 µM. Cc1cc(-c2ncccc2-c2ccc3ncnc(NCCCN(C)C)c3c2)ccc1F [compound 423, N1-(6-(2-(4-Fluoro-3-methylphenyl)pyridin-3-yl)quinazolin-4-yl)-N3,N3-dimethylpropane-1,3-diamine] showed an IC50 of 0.628 µM. For Cn1cnc2ccc(-c3cccnc3-c3cc(Cl)c(F)cc3F)cc21 [compound 784, 6-(2-(5-Chloro-2,4-difluorophenyl)pyridin-3-yl)-1-methyl-1H-benzo[d]imidazole], the IC50 was 0.125 µM. For Cc1cc(-c2ncccc2-c2ccc3nc(N)ncc3c2)ccc1F [compound 383, 6-(2-(4-Fluoro-3-methylphenyl)pyridin-3-yl)quinazolin-2-amine], the IC50 was 16.7 µM. In the case of N#Cc1cnc2ccc(-c3cccnc3-c3cc(Cl)ccc3F)cn12 [compound 719, 6-(2-(5-Chloro-2-fluorophenyl)pyridin-3-yl)imidazo[1,2-a]pyridine-3-carbonitrile], the IC50 is reported as 0.402 µM. For Cc1cccc(-c2ncccc2-c2ccc3[nH]ncc3c2)c1 [Compound 68, 5-(2-m-Tolylpyridin-3-yl)-1H-indazole], the IC50 was 0.186 µM. COc1cc(NC(=O)c2cnc3ccc(-c4cccnc4-c4ccc(F)c(C)c4)cn23)cc(OC)c1OC [compound 573, 6-(2-(4-Fluoro-3-methylphenyl)pyridin-3-yl)-N-(3,4,5-trimethoxyphenyl)imidazo[1,2-a]pyridine-3-carboxamide] gave an IC50 of 1.21 µM. For Cc1cccc(-c2ncccc2-c2ccc3ncn(CCCO)c3c2)c1 [compound 38], the IC50 was 3.23 µM. Cc1cc(-c2ncccc2-c2ccc3onc(N)c3c2)ccc1F [compound 795, 5-(2-(4-Fluoro-3-methylphenyl)pyridin-3-yl)benzo[d]isoxazol-3-amine] gave an IC50 of 8.11 µM. In the case of COc1ncnc2ccc(-c3cccnc3-c3ccc(F)c(Cl)c3)cc12 [compound 395, 6-(2-(3-Chloro-4-fluorophenyl)pyridin-3-yl)-4-methoxyquinazoline], the IC50 is reported as 0.959 µM. Fc1cc(F)c(-c2ncccc2-c2ccn3ncnc3c2)cc1F [compound 874, 7-(2-(2,4,5-Trifluorophenyl)pyridin-3-yl)-[1,2,4]triazolo[1,5-a]pyridine] showed an IC50 of 6.47 µM. With C1=C(c2cccc(-c3ncccc3-c3cnc4[nH]ncc4c3)c2)CCC1 [Compound 170, 5-(2-(3-Cyclopentenylphenyl)pyridin-3-yl)-1H-pyrazolo[3,4-b]pyridine] the IC50 was 1.96 µM. Work on Cc1cc(-c2ncccc2-c2ccn3ncc(C(=O)NCCN4CCOCC4)c3c2)ccc1F [compound 674, 5-(2-(4-Fluoro-3-methylphenyl)pyridin-3-yl)-N-(2-morpholinoethyl)pyrazolo[1,5-a]pyridine-3-carboxamide] yielded an IC50 of 0.211 µM. For Cc1ccc(F)c(-c2ncccc2-c2cnc3cn[nH]c3c2)c1 [Compound 140, 6-(2-(2-Fluoro-5-methylphenyl)pyridin-3-yl)-1H-pyrazolo[4,3-b]pyridine], the IC50 was 2.89 µM. Fc1ccc(-c2ncccc2-c2ccc3ncccc3n2)cc1Cl [compound 691, 2-(2-(3-Chloro-4-fluorophenyl)pyridin-3-yl)-1,5-naphthyridine] was tested, and the IC50 was 0.447 µM. Fc1ccc(-c2ncccc2-c2ccc3nccn3c2)cc1C1CC1 [compound 218, 6-(2-(3-Cyclopropyl-4-fluorophenyl)pyridin-3-yl)imidazo[1,2-a]pyridine] was tested, and the IC50 was 0.446 µM. Compound COc1cc(-c2ncccc2-c2cnc3cn[nH]c3c2)ccc1F [Compound 143, 6-(2-(4-Fluoro-3-methoxyphenyl)pyridin-3-yl)-1H-pyrazolo[4,3-b]pyridine] has an IC50 of 12.2 µM. Cc1ccc(Cl)cc1-c1ncccc1-c1ccc2ncnc(N)c2c1 [compound 463, 6-(2-(5-Chloro-2-methylphenyl)pyridin-3-yl)quinazolin-4-amine] was tested, and the IC50 was 0.297 µM. Cc1cc(-c2ncc(NCc3cnc4[nH]ccc4c3)cc2-c2ccc3ncsc3c2)ccc1F [compound 329, N-((1H-Pyrrolo[2,3-b]pyridin-5-yl)methyl)-5-(benzo[d]thiazol-6-yl)-6-(4-fluoro-3-methylphenyl)pyridin-3-amine] was tested, and the IC50 was 0.803 µM. Cc1cc(-c2ncc(NCc3c[nH]c4ncccc34)cc2-c2ccc3ncsc3c2)ccc1F [compound 330, N-((1H-Pyrrolo[2,3-b]pyridin-3-yl)methyl)-5-(benzo[d]thiazol-6-yl)-6-(4-fluoro-3-methylphenyl)pyridin-3-amine] gave an IC50 of 0.457 µM. In the case of FC(F)(F)c1cccc(-c2ncccc2-c2ccc3nccnc3c2)c1 [compound 542, 6-(2-(3-(Trifluoromethyl)phenyl)pyridin-3-yl)quinoxaline], the IC50 is reported as 1.72 µM. Cc1cccc(-c2ncccc2-c2ccc3ncc(C)n3c2)c1 [compound 528, 3-Methyl-6-(2-(m-Tolyl)pyridin-3-yl)imidazo[1,2-a]pyridine] gave an IC50 of 0.175 µM. CN(C)CCOc1ncnc2ccc(-c3cccnc3-c3ccc(F)c(Cl)c3)cc12 [compound 439, 2-((6-(2-(3-Chloro-4-fluorophenyl)pyridin-3-yl)quinazolin-4-yl)oxy)-N,N-dimethylethan-1-amine] was tested, and the IC50 was 0.738 µM. Work on Cc1cc(-c2ncccc2-c2ccc3nccnc3c2)ccc1F [compound 539, 6-(2-(4-Fluoro-3-methylphenyl)pyridin-3-yl)quinoxaline] yielded an IC50 of 0.699 µM.
